According to patent US20210177779A1, “COMBINATIONS OF OPIOIDS AND N-ACYLETHANOLAMINES” (SciSparc Ltd., priority 2015, published 2021):

Tests used:
Mice, strain ICR [1] = experiment: Tail pinch test (modified Haffner's method); details: first test 15 min after dosing
Mice, strain ICR [2] = experiment: Open field (OF) test, 15 minute session of spontaneous activity
Description: Open Field (OF) tests were performed as follows—Fifteen minutes after test item/vehicle administration, mice were placed at the center of an open field box (43×43×40 cm) between 9 AM and 5 PM. On each side of the open field box, two frames placed at 2 and 5 cm height with 16 photocell beams per side ensure movement detection. The computer defined grid lines that divided the open field into two compartments: margin and center. Several variables were recorded during a 15 minute session of spontaneous activity including: time spent moving, traveled distance, time spent and number of visits to the central compartment.

With `COc1ccc2c3c1O[C@H]1C(=O)CC[C@@]4(O)[C@@H](C2)N(C)CC[C@]314` [oxycodone] the “Time after administration at which the analgesic effect began” value (Mice, strain ICR [1]; high dose oxycodone 10 mg/kg IP (PEA 25 mg/kg where combined), FIG. 3A) was 15 min, the “Time after administration at which the analgesic effect began” value (Mice, strain ICR [1]; low dose oxycodone 5 mg/kg IP (PEA 25 mg/kg where combined), FIG. 3B) was 15 min and the “Total distance traveled compared to vehicle control group (1M)” value (Mice, strain ICR [2]; oxycodone 10 mg/kg IP (PEA 25 mg/kg where combined), dosed 15 min before test, 6M P<0.001, 8M P<0.05, FIG. 1, associated with irritation level) was “significantly higher”. The “Average animal velocity compared to vehicle control group (1M)” value (Mice, strain ICR [2]; oxycodone 10 mg/kg IP (PEA 25 mg/kg where combined), total distance (cm) / total moving time (sec), 6M P<0.001, 8M P<0.05, FIG. 2, associated with uncontrolled movement and confusion) was “significantly higher”, the “Total distance traveled, effect of oxycodone (dose-dependent)” value (Mice, strain ICR [2]; oxycodone 5 and 10 mg/kg IP compared to vehicle 1M, FIG. 1) was “significantly increased” and the “Average animal velocity, effect of oxycodone (dose-dependent)” value (Mice, strain ICR [2]; oxycodone 5 and 10 mg/kg IP compared to vehicle 1M, FIG. 2) was “significantly increased”.
